# How the values were obtained:
# Assay type in all cases: physicochemical
# [1] = Dynamic Vapour Sorption (DVS) analysis; details: for moisture gain observed during the moisture sorption: adsorption cycle 5 to 95% RH; for crystalline form after the DVS analysis (XRPD before/after): sample exposed up to 95% RH and down to 5% RH
# Method: Dynamic Vapour Sorption (DVS) analysis was carried out using a TA Instruments Q5000 Dynamic Vapor Sorption analyzer. The instrument was calibrated with standard weights and a sodium bromide standard for humidity. Approximately 20 mg of sample was loaded into a metal-coated quartz pan for analysis. The sample was analyzed at 25° C. with a maximum equilibration time of one hour in 10% relative humidity (RH) steps from 5 to 95% RH (adsorption cycle) and from 95 to 5% RH (desorption cycle). The movement from one step to the next occurred either after satisfying the equilibrium criterion of 0.01% weight change or, if the equilibrium criterion was not met, after one hour. The percent weight change values were calculated using Microsoft Excel®. The temperature for the DVS analysis can impact the outcome of the results.
# [2] = Relative stability of Form A and Form B slurried in organic/water solvent systems of differing water activity; details: mixture of the two forms slurried
# Excerpt: If the solvent system has higher than or equal water activity of 0.72, and the two crystalline forms are mixed, the mixture converts to Form A. The solvent systems can be mixture of any organic solvents and organic solvents containing water.
# The solvent systems can be mixture of any organic solvents and organic solvents containing water.
# [3] = Stability when milled in the presence of water or stirred (slurried) in water; details: milled with water; stirred in water between room temperature and 60° C.
# Method: Milling was performed using a Retsch Mill. About 20 mg of material was placed into a plastic grinding cup followed by 10 μL of water and a stainless-steel ball. The sample was then milled at 100% power for 20 minutes.
# To a plastic grinding cup was added 18.4 mg of Compound A and 10 μL of water. A stainless-steel ball was added. The sample was then milled on a Retsch mill at 100% power for 20 minutes at room temperature.
# (§1) To a 20 mL glass vial was added 200.0 mg of Compound A and 3.0 mL of water. A magnetic stir bar was added and the vial was capped. The vial was placed on a heating/stirring plate and the slurry was stirred magnetically for 7 days at ambient temperature. The vial was centrifuged for 10 minutes and the mother liquor was decanted. A dry air purge was directed into the vial for 10 minutes to dry the solid. The vial was then placed in a room temperature vacuum desiccator for 2 hours.
# as §1, with “plate set at 60° C.” for “plate”, “3 days.” for “7 days at ambient temperature.”
# [4] = DVS, 25° C., desorption cycle 95 to 5% RH
"stability under various humidity conditions ([1]; DVS, 5 to 95% RH)","hygroscopicity based on the DVS data ([1]; DVS, 25° C., 5 to 95% RH)","moisture gain observed during the moisture sorption ([1]; DVS, 25° C.)","moisture loss observed during the desorption cycle [1, 4]",crystalline form after the DVS analysis (XRPD before/after) [1],water activity of solvent system at which this form is the more stable of Forms A and B [2],stability when milled in the presence of water or stirred in water [3],"moisture loss during the desorption cycle (in words) [1, 4]",Compound
stable under various humidity conditions,moderately hygroscopic,approximately 9.3%,about 2%,remained unchanged,≥ 0.72,stable,–,CSc1nc(N)c2ncn([C@H]3[C@H](O)[C@H](O)[C@]4(CO)C[C@H]34)c2n1 [Form A of compound A]
–,moderately hygroscopic,approximately 6.4%,–,remained unchanged,less than or equal to 0.63,–,lost all of the moisture gain,CSc1nc(N)c2ncn([C@H]3[C@H](O)[C@H](O)[C@]4(CO)C[C@H]34)c2n1 [Form B of compound A]

# — patent US10765693B2, “Polymorphic compounds and uses thereof” (Astrocyte Pharmaceuticals, Inc., priority 2018, dated 2020)
